According to patent publication US20250262197A1, “COMPOUNDS AND METHODS FOR TREATING CHEMOTHERAPY-INDUCED PAIN” (priority 2024, published 2025):
Like-named read-outs stand apart in the source and are kept apart here.

Legend:
[1] = test system: oxaliplatin-induced peripheral neuropathy (cold allodynia); test: Single oral administration in rat model of oxaliplatin-induced peripheral neuropathy, cold allodynia, paw immersion test; assay type: in vivo, male Sprague-Dawley rats; details: for percentage of variation of the paw withdrawal latency as compared to the vehicle-treated group: p<0.05
Procedure: Cold allodynia is measured using the cryothermostat. See […]., “Effect of licofelone against mechanical hyperalgesia and cold allodynia in the rat model of incisional pain” Pharmacological Reports 2005(57):380-384. […] Cheng, X., et al., “Herbal Medicine AC591 Prevents oxaliplatin-Induced Peripheral Neuropathy in Animal Model and Cancer Patients” Frontiers in Pharmacology, 2017(8):344. This model is useful to evaluate the analgesic effects of new compounds on oxaliplatin-induced chronic painful symptoms. Cold allodynia was measured using the paw immersion test. See Singh, supra. In this test, the latency of hindpaw withdrawal was measured after immersion of the hindpaw in the cryothermostat with a temperature fixed at 10° C. (±0.5° C.). […] On day zero (D0), latency of hindpaw withdrawal was measured on both paws using the cryothermostat (Baseline pre-induction). […] Sixty minutes later, the latency of hindpaw withdrawal was measured on both paws using the cryothermostat. […] Doses are expressed in terms of free active substance. […] On D0, latency of hindpaw withdrawal was measured on both paws using the cryothermostat to obtain a preinduction baseline preinduction. […] Sixty minutes later, the latency of hindpaw withdrawal was measured on both paws using the cryothermostat. […] Rats were sacrificed at the end of the experiment by CO2 inhalation pending subsequent removal by a certified company. Results were expressed as: 1) the paw withdrawal latency (mean±s.e.m.) in seconds for each group, calculated from individual paw withdrawal latency; and 2) the percentage of variation of the paw withdrawal latency calculated from the mean value of the vehicle-treated group. To determine a statistical effect of the test substance and the reference substance, data were analyzed by a non-parametrical test. The significance level was p<0.05.

[2] = test system: oxaliplatin-induced peripheral neuropathy (cold allodynia); test: Repeated daily oral administration in rat model of oxaliplatin-induced peripheral neuropathy, cold allodynia, paw immersion test; assay type: in vivo, male Sprague-Dawley rats
Procedure: Cold allodynia is measured using the cryothermostat. See Singh, V. P., Kulkarni, S. K., “Effect of licofelone against mechanical hyperalgesia and cold allodynia in the rat model of incisional pain” Pharmacological Reports 2005(57):380-384.
Cold allodynia was measured using the paw immersion test. See Singh, supra. In this test, the latency of hindpaw withdrawal was measured after immersion of the hindpaw in the cryothermostat with a temperature fixed at 10° C. (±0.5° C.).
Duloxetine was used as a reference to validate the assay.
On D-3, latency of hindpaw withdrawal was measured on both paws using the cryothermostat to obtain a pre-induction and pre-treatment baseline. […] The first administration of vehicle and Compound A (groups 1 to 4) was done on D-3, then vehicle and Compound A were daily orally administered until D18 (n=22 repeated treatments). […] On the testing days (D4, D11, and D18), latency of hindpaw withdrawal was measured on both paws using the cryothermostat to obtain a baseline. Duloxetine was then orally administered at the same time as vehicle and Compound A at time T0. Sixty minutes later, the latency of hindpaw withdrawal was measured.
Vehicle (10% Ethanol/40% PEG 400/15% Tween 80 in sterile water) and Compound A were orally administered at 3 ml/kg. Duloxetine was orally administered at 10 ml/kg. Dosing and testing were performed in a random order by a blinded experimenter with the exception of sham animals and the duloxetine-treated group. Doses are expressed in terms of free active substance.
On D-3, the latency of hindpaw withdrawal was measured on both paws using the cryothermostat to obtain preinduction and pretreatment baselines.
The first administration of vehicle and Compound A (group 1 to 4) was done on D-3 then vehicle and Compound A were daily orally administered until D18 (n=22 repeated treatments).
On the testing days (D4, D11 and D18), latency of hindpaw withdrawal was measured on both paws using the cryothermostat (baseline) then duloxetine was orally administered at the same time than vehicle and Compound A (T0) and 60 minutes later, the latency of hindpaw withdrawal was measured.
Results were expressed as: 1) the paw withdrawal latency (mean±s.e.m.) in seconds for each group, calculated from individual paw withdrawal latency; and 2) the percentage of variation of the paw withdrawal latency calculated from the mean value of the vehicle-treated group. To determine a statistical effect of the test substance and the reference substance, data were analyzed by a non-parametrical test. The significance level was p<0.05.

[3] = test system: patients receiving oxaliplatin; details: cited from earlier work

## CC(C)C[C@](C)(N)COc1ccc(-c2ccnc(C(F)F)c2)nc1C(F)F [Compound A, ((S)-1-((2′,6-bis (difluoromethyl)-[2,4′-bipyridin]-5-yl)oxy)-2,4-dimethylpentan-2-aminiumdihydrogen phosphate]
[1]; 10 mg/kg p.o., 60 minutes post-treatment
  increase in paw withdrawal latency as compared to the vehicle-treated group: did not show a statistically significant increase
[1]; 30 mg/kg p.o., week 3, 60 minutes post-treatment
  percentage of variation of the paw withdrawal latency as compared to the vehicle-treated group: +35%
[2]; daily oral administrations at 3 mg/kg
  increase in the paw withdrawal latency as compared to the vehicle-treated group: did not show a statistically significant increase
[2]; daily p.o. 30 mg/kg then 10 mg/kg, week 2, baseline (before the day's dose), ns
  percentage of variation of the paw withdrawal latency as compared to the vehicle-treated group: +25%
[2]; daily p.o. 30 mg/kg then 10 mg/kg, week 3, 60 minutes after the administration, vehicle 6.7±0.6 sec, p<0.05
  paw withdrawal latency (mean±s.e.m.): 10.2 ± 0.8 s
[2]; daily p.o. 30 mg/kg then 10 mg/kg, week 3, baseline (before the day's dose), p<0.05
  percentage of variation of the paw withdrawal latency as compared to the vehicle-treated group: +43%

## CNCC[C@H](Oc1cccc2ccccc12)c1cccs1 [Duloxetine]
[1]; 100 mg/kg p.o., week 2, 60 minutes post-treatment
  percentage of variation of the paw withdrawal latency as compared to the vehicle-treated group: +42%
[1]; 100 mg/kg p.o., week 3, 60 minutes post-treatment
  percentage of variation of the paw withdrawal latency as compared to the vehicle-treated group: +74%
[2]; 100 mg/kg p.o. on testing day, week 2, 60 minutes after treatment, p<0.01
  percentage of variation of the paw withdrawal latency as compared to the vehicle-treated group: +33%
[2]; 100 mg/kg p.o. on testing day, week 3, 60 minutes after treatment, not significant
  increase in the paw withdrawal latency as compared to the pre-drug baseline of the corresponding group: +50%
[2]; 100 mg/kg p.o., week 3, 60 minutes after treatment, pre-drug baseline of the group 6.3±0.3 sec
  paw withdrawal latency (mean±s.e.m.): 9.4 ± 0.7 s

## O=C1[O][Pt]2([NH][C@@H]3CCCC[C@H]3[NH]2)[O]C1=O [oxaliplatin]
[3]; after one month of chemotherapy
  prevalence of CIPN in patients receiving oxaliplatin: approximately 68%
[3]; at six months or more
  prevalence of CIPN in patients receiving oxaliplatin: 30%
[3]; at three months
  prevalence of CIPN in patients receiving oxaliplatin: 60%
[3]; chronic neuropathic pain
  patients who took oxaliplatin reporting long-lasting neuropathic symptoms: Approximately 60%
